For the experiment, the system named is 3T3-L1. Put plainly: Antidiabetic activity in mouse 3T3L1 cells assessed as […] from cell culture medium using 450 mg/dL D-glucose at 30 ug/mL after 24 hrs (reference value: 310 +/- 4 mg/dl). The experiment is classed as functional.

Each structure is given as a SMILES string.

Regarding `O=C(/C=C/c1cccc(OCc2ccccc2)c1)c1cccc(I)c1`, the Activity is 238 mg/dL.
As to `COc1ccc(/C=C/C(=O)c2cccc(Cl)c2)cc1`, the Activity is 287 mg/dL.
For the molecule `O=C(/C=C/c1ccccc1)c1ccccc1I`, the Activity was found to be 223 mg/dL.
The value for `COc1ccc(/C=C/C(=O)c2ccccc2Cl)cc1` was 234 mg/dL; that for `COc1ccc(/C=C/C(=O)c2ccccc2I)cc1` was 210 mg/dL.
In the case of `O=C(/C=C/c1ccccc1)c1cc(Cl)ccc1O`, the Activity amounted to 236 mg/dL.
In the case of `COc1cccc(/C=C/C(=O)c2ccccc2I)c1` it was 210 mg/dL; in that of `COc1ccc(/C=C/C(=O)c2ccccc2Br)cc1`, 230 mg/dL; in that of `COc1cccc(/C=C/C(=O)c2cccc(Cl)c2)c1`, 255 mg/dL.

(Values after ChEMBL document CHEMBL2029201, “Synthesis of chalcone derivatives as potential anti-diabetic agents” (2012).)
